From publication PMC6541351, “Towards the preparation of synthetic outer membrane vesicle models with micromolar affinity to wheat germ agglutinin using a dialkyl thioglycoside” (Beilstein Journal of Organic Chemistry, 2019) come the findings set out here.

The term IC50 denotes the concentration that gives 50% inhibition. Read a low IC50 as greater potency.

The experiment concerns the target T1, wheat germ agglutinin (WGA).
T1 construct: horseradish peroxidase-labelled WGA (WGA-HRP); homodimer
Kind of experiment: competitive enzyme-linked lectin assay (ELLA), WGA-HRP vs PAA-GlcNAc. The format is binding, Triticum aestivum.

In the case of `CC(=O)N[C@H]1C(O)O[C@H](CO)[C@@H](O)[C@@H]1O` (stereo partly shown) [GlcNAc], the IC50 worked out at 35 mM.
